Tests used:
Recombinant SIK2 = Recombinant SIK2 (Homo sapiens (Human), UniProt Q9H0K1); assay: biochemical; settings: recombinant SIK2 2.5 nM, 1 μM ATP; read-out: SIK2 IC50
Experimental: (§1) Assays were performed in base reaction buffer (20 mM Hepes (pH 7.5), 10 mM MgCl2, 1 mM EGTA, 0.02% Brij35, 0.02 mg/mL BSA, 0.1 mM Na3VO4, 2 mM DTT, 1% DMSO). Compounds were dissolved in 100% DMSO in a 10 mM stock. […] Assays were performed for 20 minutes at room temperature, after which time ^33P-ATP (10 μCi/μL) was added followed by incubation for another 120 minutes at room temperature. Thereafter, radioactivity incorporated into the pEY peptide substrate was detected by filter-binding method. Kinase activity data were expressed as the percent remaining kinase activity in test samples compared to DMSO reactions. IC50 values and curve fits were obtained using Prism (GraphPad Software).

CRTC2 (TORC2) = assay: CRTC2 nuclear translocation (PathHunter U2OS); type: cell-based; settings: maximal CRTC2 nuclear translocation, U2OS cells, 90 minutes, maximum dose 10 μM
From the text: PathHunter® Nuclear Translocation cell lines are engineered to co-express two fusion proteins: a) Enzyme Donor (ED) tagged target protein; b) an Enzyme Acceptor (EA) tagged TAZ domain, derived from the CBP/P300 transcription factor, that localizes to the nucleus. Activation of the signaling pathway induces translocation of the ED-tagged target protein into the nucleus, which will force complementation of the two enzyme fragments, and result in the formation of a functional enzyme that will hydrolyze substrate and generate a chemiluminescent signal. U2OS CRTC2 (TORC2) translocation assays were performed in 384 well plates at Eurofins DiscoverX (Freemont, CA). Cells were treated with compounds for 90 minutes in experimental duplicates in 5 point dose response format (4-fold serial dilutions with a maximum dose of 10 μM) followed by […] readout on an Envision 2104 Multilabel Reader. In all experiments, forskolin was used as a positive control and maximal CRTC2 nuclear translocation induced by each compound is expressed as a percentage of the signal stimulated by forskolin.
Representative data are shown in FIG. 4A and presented as percent of the positive control (forskolin) signal.

RANKL = RANKL gene expression in Ocy454 cells (RT-qPCR); settings: maximal RANKL fold induction versus DMSO, four hours;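 also: Ocy454 cells moved to 37 °C for osteocytic differentiation before compound exposure, RANKL mRNA by SYBR Green qRT-PCR, 2^−ΔΔCT with β-actin normalization, duplicate wells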
SIK3 = SIK3 (Homo sapiens (Human), UniProt Q9Y2K2); assay: In vitro SIK3 kinase assay; type: biochemical
Experimental: as §1

SIK1 = SIK1 (Homo sapiens (Human), UniProt P57059); assay: In vitro SIK1 kinase assay; type: biochemical
Experimental: as §1

SIK3, sequence (Q9Y2K2 whole entry): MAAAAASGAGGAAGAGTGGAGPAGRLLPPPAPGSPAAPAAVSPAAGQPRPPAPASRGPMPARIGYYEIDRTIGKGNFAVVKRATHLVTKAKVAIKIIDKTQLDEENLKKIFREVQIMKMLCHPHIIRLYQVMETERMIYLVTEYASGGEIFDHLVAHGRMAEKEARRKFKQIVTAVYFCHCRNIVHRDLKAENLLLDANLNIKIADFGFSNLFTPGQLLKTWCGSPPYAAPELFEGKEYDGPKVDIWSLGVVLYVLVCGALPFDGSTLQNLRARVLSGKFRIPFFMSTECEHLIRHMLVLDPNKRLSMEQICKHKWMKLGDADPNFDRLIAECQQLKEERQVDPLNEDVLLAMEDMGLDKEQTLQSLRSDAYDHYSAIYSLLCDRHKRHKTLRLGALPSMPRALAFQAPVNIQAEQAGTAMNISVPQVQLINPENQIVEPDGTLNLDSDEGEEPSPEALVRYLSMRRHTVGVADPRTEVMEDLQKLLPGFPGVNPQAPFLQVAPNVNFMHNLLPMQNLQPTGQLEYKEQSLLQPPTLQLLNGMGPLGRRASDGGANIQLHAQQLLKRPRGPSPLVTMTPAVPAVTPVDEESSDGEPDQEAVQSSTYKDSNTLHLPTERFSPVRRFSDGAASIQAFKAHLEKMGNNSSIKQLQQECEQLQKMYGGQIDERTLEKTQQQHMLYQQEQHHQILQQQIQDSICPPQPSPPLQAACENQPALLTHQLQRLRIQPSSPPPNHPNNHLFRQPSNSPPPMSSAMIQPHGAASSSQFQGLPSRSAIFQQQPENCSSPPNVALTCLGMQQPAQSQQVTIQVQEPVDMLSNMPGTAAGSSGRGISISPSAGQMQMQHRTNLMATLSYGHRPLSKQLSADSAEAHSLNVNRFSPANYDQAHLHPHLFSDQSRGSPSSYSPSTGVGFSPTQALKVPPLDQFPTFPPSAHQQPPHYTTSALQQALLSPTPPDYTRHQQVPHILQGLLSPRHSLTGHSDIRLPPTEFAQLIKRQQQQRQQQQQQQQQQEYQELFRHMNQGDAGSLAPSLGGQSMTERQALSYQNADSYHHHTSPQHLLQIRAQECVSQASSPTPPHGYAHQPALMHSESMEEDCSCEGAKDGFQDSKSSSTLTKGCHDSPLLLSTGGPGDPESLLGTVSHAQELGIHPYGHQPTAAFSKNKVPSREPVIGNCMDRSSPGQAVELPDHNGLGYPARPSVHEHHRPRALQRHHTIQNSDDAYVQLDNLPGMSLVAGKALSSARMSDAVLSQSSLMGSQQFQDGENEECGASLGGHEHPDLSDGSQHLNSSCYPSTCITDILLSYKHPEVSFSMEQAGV
Recombinant SIK2, sequence (Q9H0K1 whole entry): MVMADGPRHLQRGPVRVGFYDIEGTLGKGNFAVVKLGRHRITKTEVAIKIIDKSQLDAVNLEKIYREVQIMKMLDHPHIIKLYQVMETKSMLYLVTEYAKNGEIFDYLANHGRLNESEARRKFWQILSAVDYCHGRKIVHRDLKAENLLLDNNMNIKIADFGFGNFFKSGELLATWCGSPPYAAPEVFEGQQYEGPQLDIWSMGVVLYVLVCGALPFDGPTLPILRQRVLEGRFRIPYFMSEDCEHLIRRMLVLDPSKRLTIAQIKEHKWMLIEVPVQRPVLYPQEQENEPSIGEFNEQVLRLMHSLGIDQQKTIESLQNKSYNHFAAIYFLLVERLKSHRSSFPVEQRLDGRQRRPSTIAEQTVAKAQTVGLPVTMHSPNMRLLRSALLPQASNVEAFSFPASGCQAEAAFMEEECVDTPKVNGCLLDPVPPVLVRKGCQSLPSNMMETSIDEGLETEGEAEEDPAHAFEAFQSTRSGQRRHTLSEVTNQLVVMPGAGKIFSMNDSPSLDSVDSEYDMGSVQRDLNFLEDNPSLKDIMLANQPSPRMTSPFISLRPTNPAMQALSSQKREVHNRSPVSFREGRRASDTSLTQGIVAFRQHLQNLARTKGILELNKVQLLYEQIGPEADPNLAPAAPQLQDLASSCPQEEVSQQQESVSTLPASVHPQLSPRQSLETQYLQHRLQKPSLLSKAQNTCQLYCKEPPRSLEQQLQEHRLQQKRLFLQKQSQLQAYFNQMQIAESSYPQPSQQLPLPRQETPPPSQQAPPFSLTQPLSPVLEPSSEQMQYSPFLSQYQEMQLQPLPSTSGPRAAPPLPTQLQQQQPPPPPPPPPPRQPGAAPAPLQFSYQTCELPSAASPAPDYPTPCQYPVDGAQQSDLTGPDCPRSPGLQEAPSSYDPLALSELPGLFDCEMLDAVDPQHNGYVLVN
SIK1, sequence (P57059 whole entry): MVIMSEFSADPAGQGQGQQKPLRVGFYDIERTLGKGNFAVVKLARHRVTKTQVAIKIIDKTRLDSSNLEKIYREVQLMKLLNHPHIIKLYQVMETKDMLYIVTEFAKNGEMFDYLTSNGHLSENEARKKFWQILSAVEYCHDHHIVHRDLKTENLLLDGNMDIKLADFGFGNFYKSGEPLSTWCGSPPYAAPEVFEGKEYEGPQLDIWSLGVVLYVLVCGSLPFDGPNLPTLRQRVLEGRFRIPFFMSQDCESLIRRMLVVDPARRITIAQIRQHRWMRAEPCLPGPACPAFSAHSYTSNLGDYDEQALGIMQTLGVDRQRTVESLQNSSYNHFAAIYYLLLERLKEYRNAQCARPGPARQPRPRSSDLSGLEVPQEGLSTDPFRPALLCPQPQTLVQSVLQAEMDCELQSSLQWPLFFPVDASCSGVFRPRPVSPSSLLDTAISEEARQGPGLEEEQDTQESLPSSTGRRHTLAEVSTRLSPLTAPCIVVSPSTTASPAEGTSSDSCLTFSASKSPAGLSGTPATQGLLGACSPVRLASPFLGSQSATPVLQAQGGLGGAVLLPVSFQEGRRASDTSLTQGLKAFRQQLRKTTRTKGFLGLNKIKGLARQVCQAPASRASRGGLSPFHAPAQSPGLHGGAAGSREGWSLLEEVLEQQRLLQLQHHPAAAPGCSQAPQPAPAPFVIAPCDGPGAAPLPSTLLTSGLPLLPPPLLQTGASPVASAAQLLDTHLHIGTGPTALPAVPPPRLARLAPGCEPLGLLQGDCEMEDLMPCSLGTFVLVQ

## CC1(COc2ccn3c(-c4ccc(C#N)cc4)cnc3c2)COC1 [Example 38, 4-[7-[(3-Methyloxetan-3-yl)methoxy]imidazo[1,2-a]pyridin-3-yl]benzonitrile]
Recombinant SIK2
  IC50: 211 nM
CRTC2 (TORC2)
  CRTC2 Efficacy (% of forskolin): 10.1 % of forskolin
RANKL
  RANKL Fold Induction: 0.37 fold

## CC1(COc2ccc3c(c2)ncn3-c2ccc3cccc(N4CCCC4CN)c3n2)COC1 (stereo not drawn) [Example 8, (1-(2-(5-((3-methyloxetan-3-yl)methoxy)-1H-benzo[d]imidazol-1-yl)quinolin-8-yl)pyrrolidin-2-yl)methanamine]
Recombinant SIK2
  IC50: 11.6 nM
SIK3
  IC50: 30.8 nM
SIK1
  IC50: 50.1 nM
CRTC2 (TORC2)
  CRTC2 Efficacy (% of forskolin): 64.4 % of forskolin
RANKL
  RANKL Fold Induction: 17.47 fold

## CC1(COc2ccc3c(c2)ncn3-c2ccc3cccc(C4CCNC4)c3n2)COC1 (stereo not drawn) [Example 16, 2-(5-((3-Methyloxetan-3-yl)methoxy)-1H-benzo[d]imidazol-1-yl)-8-(pyrrolidin-3-yl)quinoline]
Recombinant SIK2
  IC50: 3.39 nM
SIK3
  IC50: 4.43 nM
SIK1
  IC50: 16.6 nM
RANKL
  RANKL Fold Induction: 27.76 fold

## CN1CC(c2cccc3ccc(-n4cnc5cc(OCC6(C)COC6)ccc54)nc23)C1 [Example 15, 8-(1-Methylazetidin-3-yl)-2-(5-((3-methyloxetan-3-yl)methoxy)-1H-benzo[d]imidazol-1-yl)quinoline]
Recombinant SIK2
  IC50: 1.91 nM
SIK3
  IC50: 1.12 nM
SIK1
  IC50: 4.37 nM
CRTC2 (TORC2)
  CRTC2 Efficacy (% of forskolin): 63.5 % of forskolin
RANKL
  RANKL Fold Induction: 88.34 fold

## CCn1cc(-c2ccc3c(-c4ccc(C#N)cc4)cnn3c2)cn1 [Example 52, 4-[6-(1-Ethylpyrazol-4-yl)pyrazolo[1,5-a]pyridin-3-yl]benzonitrile]
Recombinant SIK2
  IC50: 1.11 nM
SIK3
  IC50: 1.64 nM
SIK1
  IC50: 4.77 nM
CRTC2 (TORC2)
  CRTC2 Efficacy (% of forskolin): 77 % of forskolin
RANKL
  RANKL Fold Induction: 19.99 fold

## COc1cc(-c2cnc3cc(C(=O)NCc4ccc(C)nc4)ccn23)cc(OC)c1C(=O)NCC(F)(F)F [Example 68, 3-[3,5-Dimethoxy-4-(2,2,2-trifluoroethylcarbamoyl)phenyl]-N-[(6-methyl-3-pyridyl)methyl]imidazo[1,2-a]pyridine-7-carboxamide]
Recombinant SIK2
  IC50: 12.4 nM
SIK3
  IC50: 8.67 nM
SIK1
  IC50: 94.7 nM
CRTC2 (TORC2)
  CRTC2 Efficacy (% of forskolin): 12 % of forskolin
RANKL
  RANKL Fold Induction: 2.88 fold

## CCn1cc(-c2ccn3c(-c4ccc(-c5noc(C)n5)cc4)cnc3c2)cn1 [Example 62, 3-(4-(7-(1-Ethyl-1H-pyrazol-4-yl)imidazo[1,2-a]pyridin-3-yl)phenyl)-5-methyl-1,2,4-oxadiazole]
Recombinant SIK2
  IC50: 253 nM
SIK3
  IC50: 1090 nM
SIK1
  IC50: 1130 nM
CRTC2 (TORC2)
  CRTC2 Efficacy (% of forskolin): 8.6 % of forskolin

## CCc1nnc(-c2c(OC)cc(-c3cnn4cc(-c5cnn(C6CC6)c5)ccc34)cc2OC)o1 [Example 53, 2-(4-(6-(1-cyclopropyl-1H-pyrazol-4-yl)pyrazolo[1,5-a]pyridin-3-yl)-2,6-dimethoxyphenyl)-5-ethyl-1,3,4-oxadiazole]
Recombinant SIK2
  IC50: 1.77 nM
SIK3
  IC50: 2.62 nM
SIK1
  IC50: 17.4 nM

## N#Cc1ccc(-c2cnc3cc(C(=O)NCc4nc5ccccc5o4)ccn23)cc1 [Example 26, N-(benzo[d]oxazol-2-ylmethyl)-3-(4-cyanophenyl)imidazo[1,2-a]pyridine-7-carboxamide]
Recombinant SIK2
  IC50: 83 nM
CRTC2 (TORC2)
  CRTC2 Efficacy (% of forskolin): 1.3 % of forskolin
RANKL
  RANKL Fold Induction: 0.55 fold

## N#Cc1ccc(-c2cnc3cc(C(=O)N4CCn5c(nc6ccccc65)C4)ccn23)cc1 [Example 28, 4-(7-(1,2,3,4-tetrahydrobenzo[4,5]imidazo[1,2-a]pyrazine-2-carbonyl)imidazo[1,2-a]pyridin-3-yl)benzonitrile]
Recombinant SIK2
  IC50: 597 nM
SIK3
  IC50: 8090 nM
CRTC2 (TORC2)
  CRTC2 Efficacy (% of forskolin): 3.4 % of forskolin
RANKL
  RANKL Fold Induction: 1.25 fold

## Cn1c(CNC(=O)c2ccn3c(-c4ccc(C#N)cc4)cnc3c2)nc2ccccc21 [Example 23, 3-(4-cyanophenyl)-N-((1-methyl-1H-benzo[d]imidazol-2-yl)methyl)imidazo[1,2-a]pyridine-7-carboxamide]
Recombinant SIK2
  IC50: 14.3 nM
SIK3
  IC50: 861 nM
CRTC2 (TORC2)
  CRTC2 Efficacy (% of forskolin): 19.8 % of forskolin

## CN1CCC(c2cccc3ccc(-n4cnc5cc(OCC6(C)COC6)ccc54)nc23)C1 (stereo not drawn) [Example 17, 2-(5-((3-Methyloxetan-3-yl)methoxy)-1H-benzo[d]imidazol-1-yl)-8-(1-methylpyrrolidin-3-yl)quinoline]
Recombinant SIK2
  IC50: 1.04 nM
SIK3
  IC50: 15.4 nM
SIK1
  IC50: 53.3 nM
RANKL
  RANKL Fold Induction: 12.73 fold

## CCc1nnc(-c2c(OC)cc(-c3cnc4cc(OCc5ccc(C)nc5)ccn34)cc2OC)o1 [Example 42, 2-[2,6-Dimethoxy-4-[7-[(6-methyl-3-pyridyl)methoxy]imidazo[1,2-a]pyridin-3-yl]phenyl]-5-ethyl-1,3,4-oxadiazole]
Recombinant SIK2
  IC50: 37 nM
SIK3
  IC50: 47 nM
SIK1
  IC50: 1180 nM

## CN1CCOCC12CCN(c1cccc3ccc(-n4cnc5cc(OCC6(C)COC6)ccc54)nc13)CC2 [Example 10, 1-Methyl-9-[2-[5-[(3-methyloxetan-3-yl)methoxy]benzimidazol-1-yl]-8-quinolyl]-4-oxa-1,9-diazaspiro[5.5]undecane]
Recombinant SIK2
  IC50: 2.11 nM
SIK3
  IC50: 3.71 nM
SIK1
  IC50: 37.8 nM
CRTC2 (TORC2)
  CRTC2 Efficacy (% of forskolin): 75.8 % of forskolin
RANKL
  RANKL Fold Induction: 58.64 fold

## COc1cc(-c2cnc3cc(-c4cnn(C)c4)ccn23)cc(OC)c1-c1nnc(C2CC2)o1 [Example 60, 2-cyclopropyl-5-(2,6-dimethoxy-4-(7-(1-methyl-1H-pyrazol-4-yl)imidazo[1,2-a]pyridin-3-yl)phenyl)-1,3,4-oxadiazole]
Recombinant SIK2
  IC50: 1.49 nM
SIK3
  IC50: 1.64 nM
SIK1
  IC50: 4.45 nM
RANKL
  RANKL Fold Induction: 307.25 fold

## CCn1cc(-c2ccn3c(-c4ccc(-c5nnc(C)o5)cc4)cnc3c2)cn1 [Example 56, 2-(4-(7-(1-ethyl-1H-pyrazol-4-yl)imidazo[1,2-a]pyridin-3-yl)phenyl)-5-methyl-1,3,4-oxadiazole]
Recombinant SIK2
  IC50: 533 nM
SIK3
  IC50: 617 nM
SIK1
  IC50: 3120 nM
CRTC2 (TORC2)
  CRTC2 Efficacy (% of forskolin): 4.9 % of forskolin
RANKL
  RANKL Fold Induction: 2.18 fold

## Cc1ccc(CNC(=O)c2ccn3c(-c4ccc(C#N)cc4)cnc3c2)cn1 [Example 19, 3-(4-cyanophenyl)-N-[(6-methyl-3-pyridyl)methyl]imidazo[1,2-a]pyridine-7-carboxamide]
CRTC2 (TORC2)
  CRTC2 Efficacy (% of forskolin): 27 % of forskolin
RANKL
  RANKL Fold Induction: 1.04 fold

## N#Cc1ccc(-c2cnc3cc(C(=O)NCc4nc5ccncc5[nH]4)ccn23)cc1 [Example 25, N-((3H-imidazo[4,5-c]pyridin-2-yl)methyl)-3-(4-cyanophenyl)imidazo[1,2-a]pyridine-7-carboxamide]
Recombinant SIK2
  IC50: 9.74 nM
SIK3
  IC50: 1190 nM
SIK1
  IC50: 5450 nM
CRTC2 (TORC2)
  CRTC2 Efficacy (% of forskolin): 1.6 % of forskolin
RANKL
  RANKL Fold Induction: 1.10 fold

## CCc1nnc(-c2c(OC)cc(-c3cnc4cc(OCC5(C)COC5)ccn34)cc2OC)o1 [Example 39, 2-(2,6-dimethoxy-4-(7-((3-methyloxetan-3-yl)methoxy)imidazo[1,2-a]pyridin-3-yl)phenyl)-5-ethyl-1,3,4-oxadiazole]
Recombinant SIK2
  IC50: 136 nM
SIK3
  IC50: 83.6 nM
SIK1
  IC50: 2680 nM

## CCn1cc(-c2ccn3c(-c4ccc(C#N)c(C)c4)cnc3c2)cn1 [Example 47, 4-(7-(1-ethyl-1H-pyrazol-4-yl)imidazo[1,2-a]pyridin-3-yl)-2-methylbenzonitrile]
Recombinant SIK2
  IC50: 0.855 nM
SIK3
  IC50: 4.16 nM
SIK1
  IC50: 8.34 nM
RANKL
  RANKL Fold Induction: 17.43 fold

## Cc1ccc(CCOc2ccn3c(-c4ccc(C#N)cc4)cnc3c2)cn1 [Example 41, 4-[7-[2-(6-Methyl-3-pyridyl)ethoxy]imidazo[1,2-a]pyridin-3-yl]benzonitrile]
SIK3
  IC50: 12.6 nM
SIK1
  IC50: 233 nM
CRTC2 (TORC2)
  CRTC2 Efficacy (% of forskolin): 44.2 % of forskolin
RANKL
  RANKL Fold Induction: 2.61 fold

## CN(Cc1nc2ccccc2n1C)C(=O)c1ccn2c(-c3ccc(C#N)cc3)cnc2c1 [Example 29, 3-(4-Cyanophenyl)-N-methyl-N-[(1-methylbenzimidazol-2-yl)methyl]imidazo[1,2-a]pyridine-7-carboxamide]
Recombinant SIK2
  IC50: 608 nM
SIK3
  IC50: 8340 nM
CRTC2 (TORC2)
  CRTC2 Efficacy (% of forskolin): 2.8 % of forskolin
RANKL
  RANKL Fold Induction: 1.48 fold

Reference: US20240025892A1 (priority 2020, published 2024)
